Data as given in ChEMBL document CHEMBL1201862, “PubChem BioAssay data set” (2004).
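Compound exposure: 48 hours, 5 concentrations, 96-well plates. GI50 is the concentration that inhibits growth by half.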 The source made the active and inactive calls. No stated cut-off is given here; in the data, active = GI50 up to about 1.1 µM and inactive = higher.

Assays:
Assay in all cases: NCI tumour cell line growth inhibition, 48 h
CCRF-CEM = test system: CCRF-CEM
HCT-116 = test system: HCT-116
LOX IMVI = test system: LOX IMVI
HL-60 = test system: HL-60
M19-MEL = test system: M19-MEL
SF-295 = test system: SF-295
OVCAR-4 = test system: OVCAR-4
UACC-257 = test system: UACC-257
Malme-3M = test system: Malme-3M
NCI-H226 = test system: NCI-H226
HCC 2998 = test system: HCC 2998
NCI-H23 = test system: NCI-H23
IGROV-1 = test system: IGROV-1
OVCAR-8 = test system: OVCAR-8
SK-MEL-2 = test system: SK-MEL-2
ACHN = test system: ACHN
HOP-92 = test system: HOP-92
K562 = test system: K562

Row | Compound | GI50 (CCRF-CEM) | GI50 (HCT-116) | GI50 (LOX IMVI) | GI50 (HL-60) | GI50 (M19-MEL) | GI50 (SF-295) | GI50 (OVCAR-4) | GI50 (UACC-257) | GI50 (Malme-3M) | GI50 (NCI-H226) | GI50 (HCC 2998) | GI50 (NCI-H23) | GI50 (IGROV-1) | GI50 (OVCAR-8) | GI50 (SK-MEL-2) | GI50 (ACHN) | GI50 (HOP-92) | GI50 (K562)
1 | NNC(=O)C(=O)N/N=C(\CCCC(=O)Nc1ccc(Cl)cc1)CC(=O)c1ccc(F)cc1 | > 100 µM (inactive) | > 100 µM (inactive) | 13.9 µM (inactive) | > 100 µM (inactive) | 53.3 µM (inactive) | > 100 µM (inactive) | > 100 µM (inactive) | > 100 µM (inactive) | > 100 µM (inactive) | > 100 µM (inactive) | > 100 µM (inactive) | > 100 µM (inactive) | > 100 µM (inactive) | > 100 µM (inactive) | 15.7 µM (inactive) | 17.8 µM (inactive) | > 100 µM (inactive) | 
2 | CC1CCC(=O)NCCCCC(=O)N1 (stereo not given) | > 100 µM (inactive) | > 100 µM (inactive) | > 100 µM (inactive) | > 100 µM (inactive) | > 100 µM (inactive) | > 100 µM (inactive) | > 100 µM (inactive) | > 100 µM (inactive) | > 100 µM (inactive) | > 100 µM (inactive) | > 100 µM (inactive) | > 100 µM (inactive) | > 100 µM (inactive) | > 100 µM (inactive) | > 100 µM (inactive) | > 100 µM (inactive) | > 100 µM (inactive) | > 100 µM (inactive)
3 | CCOC(=O)c1cc2c(nc1N)-c1ncccc1CC2 | 20.4 µM (inactive) | 44.3 µM (inactive) | 65.6 µM (inactive) | 28.1 µM (inactive) | 89.5 µM (inactive) | 54.5 µM (inactive) | > 100 µM (inactive) | 38.5 µM (inactive) | > 100 µM (inactive) | 66.2 µM (inactive) | > 100 µM (inactive) | 37.2 µM (inactive) | 49.4 µM (inactive) | 83.6 µM (inactive) | > 100 µM (inactive) | 61.7 µM (inactive) | > 100 µM (inactive) | 27 µM (inactive)
4 | O=C(c1cc2ccccc2o1)N(Cc1ccccc1)c1ccccc1 | 13.6 µM (inactive) | 16.9 µM (inactive) | 21 µM (inactive) | 16.4 µM (inactive) | 21.7 µM (inactive) | 34.4 µM (inactive) |  | 20.3 µM (inactive) | 23.7 µM (inactive) | 15.6 µM (inactive) | 23.4 µM (inactive) | 27 µM (inactive) | 35.5 µM (inactive) | 22.9 µM (inactive) | 33.8 µM (inactive) | 26.6 µM (inactive) | 20.7 µM (inactive) | 15 µM (inactive)
5 | NC(=O)N/N=C(\Cc1nc2ccc(C(=O)c3ccccc3)cc2nc1O)C(=O)Nc1ccc(Br)cc1 | > 100 µM (inactive) | > 100 µM (inactive) | > 100 µM (inactive) | > 100 µM (inactive) | > 100 µM (inactive) | > 100 µM (inactive) | > 100 µM (inactive) | > 100 µM (inactive) | > 100 µM (inactive) | 86.3 µM (inactive) | > 100 µM (inactive) | > 100 µM (inactive) | > 100 µM (inactive) | > 100 µM (inactive) | > 100 µM (inactive) | > 100 µM (inactive) | > 100 µM (inactive) | > 100 µM (inactive)
6 | COC(=O)CCC(=O)Nc1cc(C)ccc1C | > 100 µM (inactive) | > 100 µM (inactive) | > 100 µM (inactive) | > 100 µM (inactive) | > 100 µM (inactive) | > 100 µM (inactive) | > 100 µM (inactive) | > 100 µM (inactive) | > 100 µM (inactive) | > 100 µM (inactive) | > 100 µM (inactive) | > 100 µM (inactive) | > 100 µM (inactive) | > 100 µM (inactive) | > 100 µM (inactive) | > 100 µM (inactive) | > 100 µM (inactive) | > 100 µM (inactive)
7 | CCc1cccc(C)c1NC(=O)CCc1nnc(S)[nH]1 | > 100 µM (inactive) | > 100 µM (inactive) | > 100 µM (inactive) | > 100 µM (inactive) | > 100 µM (inactive) | > 100 µM (inactive) | > 100 µM (inactive) | > 100 µM (inactive) | > 100 µM (inactive) | > 100 µM (inactive) | > 100 µM (inactive) | > 100 µM (inactive) | > 100 µM (inactive) | > 100 µM (inactive) | > 100 µM (inactive) | > 100 µM (inactive) | > 100 µM (inactive) | > 100 µM (inactive)
8 | CN1CCCNCCN(CCc2ccccn2)CCCN(C)CC1 | > 41.9 µM (inactive) | > 66.2 µM (inactive) | > 50.1 µM (inactive) | > 48.8 µM (inactive) | > 59.4 µM (inactive) | > 100 µM (inactive) | > 58.5 µM (inactive) | > 100 µM (inactive) | > 100 µM (inactive) | > 100 µM (inactive) | > 100 µM (inactive) | > 100 µM (inactive) | > 100 µM (inactive) | > 100 µM (inactive) | > 100 µM (inactive) | > 100 µM (inactive) | > 100 µM (inactive) | > 44.9 µM (inactive)
9 | OCc1ccc2[n+](c1)CCC1c3ccccc3NC21 (stereo not given) | > 300 µM (inactive) | > 300 µM (inactive) | > 300 µM (inactive) | > 300 µM (inactive) | 119 µM (inactive) | > 300 µM (inactive) |  | 283 µM (inactive) | 75.5 µM (inactive) | > 300 µM (inactive) | > 300 µM (inactive) | > 300 µM (inactive) | > 300 µM (inactive) | > 300 µM (inactive) | > 300 µM (inactive) | > 300 µM (inactive) | 230 µM (inactive) | > 300 µM (inactive)
10 | Cc1cc2c(=O)n(-c3ccc(F)cc3)c(C)nc2c(C(=O)O)c1C | > 100 µM (inactive) | > 100 µM (inactive) | > 100 µM (inactive) | > 100 µM (inactive) | > 100 µM (inactive) | > 100 µM (inactive) | > 100 µM (inactive) | > 100 µM (inactive) | > 100 µM (inactive) | > 100 µM (inactive) | > 100 µM (inactive) | > 100 µM (inactive) | > 100 µM (inactive) | > 100 µM (inactive) | > 100 µM (inactive) | > 100 µM (inactive) | > 100 µM (inactive) | > 100 µM (inactive)
11 | CCN(CCCl)CCNc1c2ccccc2nc2ccc(OC)cc12 | 0.104 µM (active) | 0.236 µM (active) | 0.31 µM (active) | 0.199 µM (active) | 0.703 µM (active) | 0.766 µM (active) | 0.794 µM (active) | 1.52 µM (inactive) | 0.861 µM (active) | 0.6 µM (active) | 0.847 µM (active) | 0.514 µM (active) | 0.463 µM (active) | 0.263 µM (active) | 1.03 µM (active) | 0.127 µM (active) | 0.822 µM (active) | 0.213 µM (active)
